{"source": "patent US20110217337A1", "about": "“BIOACTIVE AGENT FOR BONE TISSUE ENGINEERING” (UNIVERSITY OF CONNECTICUT, priority 2010, published 2011)", "origin": "cited, not measured here", "key": {"osteoblast": {"system": "osteoblast", "settings": "cited from earlier work"}, "cell proliferation": {"system": "cell proliferation", "settings": "cited from earlier work"}, "cAMP receptors": {"system": "cAMP receptors", "settings": "in vivo; cited from earlier work"}, "bone formation": {"system": "bone formation", "settings": "via the PKA pathway; cited from earlier work"}, "osteogenesis": {"system": "osteogenesis", "settings": "via the PKA pathway; cited from earlier work"}}}
{"smiles": "Nc1ncnc2c1nc(Br)n2[C@@H]1O[C@@H]2COP(=O)(O)O[C@H]2[C@H]1O", "note": "[8-Br-cAMP]", "values": [{"measurement": "osteoblast proliferation", "setting": "osteoblast", "value": "inhibits osteoblast proliferation"}]}
{"smiles": "CCCC(=O)Nc1ncnc2c1ncn2[C@@H]1O[C@@H]2COP(=O)(O)O[C@H]2[C@H]1OC(=O)CCC", "note": "[db-cAMP, N^6,2′-O-dibutyryladenosine-3′,5′-cyclic monophosphate]", "values": [{"measurement": "cell proliferation", "setting": "cell proliferation", "value": "inhibit cell proliferation"}, {"measurement": "activation of cAMP receptors", "setting": "cAMP receptors", "value": "activate all cAMP receptors non-specifically"}, {"measurement": "in vivo bone formation", "setting": "bone formation", "value": "enhances"}, {"measurement": "in vitro osteogenesis", "setting": "osteogenesis", "value": "enhances"}]}
